Assays:
Caspase-1 (Homo sapiens) = Caspase-1 (Homo sapiens) (UniProt P29466); assay: Caspase-1 (h) Eurofins-Cerep enzyme and uptake assay; conditions: Compound concentration 10.0 uM
[1] = target: Angiotensin-converting enzyme 2 (Homo sapiens) (UniProt Q9BYF1); assay: ACE-2 (h) Eurofins-Cerep enzyme and uptake assay; conditions: Compound concentration 10.0 uM
[2] = target: Cathepsin Z (Homo sapiens) (UniProt Q9UBR2); assay: Cathepsin X (h) Eurofins-Cerep enzyme and uptake assay; conditions: Compound concentration 10.0 uM
[3] = target: Matrix metalloproteinase-9 (Homo sapiens) (UniProt P14780); assay: MMP-9 (h) Eurofins-Cerep enzyme and uptake assay; conditions: Compound concentration 10.0 uM
[4] = target: 5-hydroxytryptamine receptor 1A (Homo sapiens) (UniProt P08908); conditions: Compound concentration 10.0 uM
Chain of 5-hydroxytryptamine receptor 1A (Homo sapiens) (P08908 whole entry): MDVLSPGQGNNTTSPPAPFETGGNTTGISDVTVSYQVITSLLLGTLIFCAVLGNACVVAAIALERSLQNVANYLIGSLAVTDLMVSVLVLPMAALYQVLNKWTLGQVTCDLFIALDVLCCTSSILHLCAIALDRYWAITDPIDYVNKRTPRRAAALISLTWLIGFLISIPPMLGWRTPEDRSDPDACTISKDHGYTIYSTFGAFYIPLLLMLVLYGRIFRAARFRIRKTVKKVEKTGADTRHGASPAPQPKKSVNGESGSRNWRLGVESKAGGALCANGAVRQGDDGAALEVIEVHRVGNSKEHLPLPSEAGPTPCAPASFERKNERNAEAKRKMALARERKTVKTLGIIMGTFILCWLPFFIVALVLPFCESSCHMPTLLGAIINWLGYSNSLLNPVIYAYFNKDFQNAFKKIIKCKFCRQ

[5] = target: Macrophage metalloelastase (Homo sapiens) (UniProt P39900); assay: MMP-12 (h) Eurofins-Cerep enzyme and uptake assay; conditions: Compound concentration 10.0 uM
[6] = target: Interstitial collagenase (Homo sapiens) (UniProt P03956); assay: MMP-1 (h) Eurofins-Cerep enzyme and uptake assay; conditions: Compound concentration 10.0 uM
[7] = target: Calcium/calmodulin-dependent protein kinase type II subunit gamma (Homo sapiens) (UniProt Q13555); conditions: Compound concentration 1000.0 nM
Chain of Calcium/calmodulin-dependent protein kinase type II subunit gamma (Homo sapiens) (Q13555 whole entry): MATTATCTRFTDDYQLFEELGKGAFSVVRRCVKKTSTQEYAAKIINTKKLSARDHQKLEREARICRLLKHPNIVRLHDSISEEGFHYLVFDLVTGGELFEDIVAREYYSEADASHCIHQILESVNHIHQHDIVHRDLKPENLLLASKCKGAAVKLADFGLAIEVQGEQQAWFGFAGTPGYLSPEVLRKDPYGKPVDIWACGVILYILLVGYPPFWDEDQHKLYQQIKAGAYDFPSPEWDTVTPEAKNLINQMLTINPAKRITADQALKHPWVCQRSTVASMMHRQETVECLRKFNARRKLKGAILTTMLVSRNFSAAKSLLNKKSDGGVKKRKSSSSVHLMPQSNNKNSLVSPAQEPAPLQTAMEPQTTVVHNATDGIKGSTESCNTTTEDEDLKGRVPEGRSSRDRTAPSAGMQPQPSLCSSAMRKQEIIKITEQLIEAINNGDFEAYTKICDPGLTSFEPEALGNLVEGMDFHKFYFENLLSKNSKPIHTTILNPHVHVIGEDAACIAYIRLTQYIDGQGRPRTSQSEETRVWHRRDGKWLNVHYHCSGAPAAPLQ

[8] = target: Cathepsin B (Homo sapiens) (UniProt P07858); assay: Cathepsin B (h) Eurofins-Cerep enzyme and uptake assay; conditions: Compound concentration 10.0 uM
Tryptase (Homo sapiens) = Tryptase (Homo sapiens) (UniProt Q9BZJ3+Q15661+Q9NRR2); assay: Tryptase (h) Eurofins-Cerep enzyme and uptake assay; format: protein assay; conditions: Compound concentration 10.0 uM
[9] = target: 72 kDa type IV collagenase (Homo sapiens) (UniProt P08253); assay: MMP-2 (h) Eurofins-Cerep enzyme and uptake assay; conditions: Compound concentration 10.0 uM
[10] = target: D(2) dopamine receptor (Homo sapiens) (UniProt P14416); conditions: Compound concentration 10.0 uM
[11] = target: Collagenase 3 (Homo sapiens) (UniProt P45452); assay: MMP-13 (h) Eurofins-Cerep enzyme and uptake assay; conditions: Compound concentration 10.0 uM
[12] = target: Neutrophil collagenase (Homo sapiens) (UniProt P22894); assay: MMP-8 (h) Eurofins-Cerep enzyme and uptake assay; conditions: Compound concentration 10.0 uM
Chain of Neutrophil collagenase (Homo sapiens) (P22894 101-467 limits assumed): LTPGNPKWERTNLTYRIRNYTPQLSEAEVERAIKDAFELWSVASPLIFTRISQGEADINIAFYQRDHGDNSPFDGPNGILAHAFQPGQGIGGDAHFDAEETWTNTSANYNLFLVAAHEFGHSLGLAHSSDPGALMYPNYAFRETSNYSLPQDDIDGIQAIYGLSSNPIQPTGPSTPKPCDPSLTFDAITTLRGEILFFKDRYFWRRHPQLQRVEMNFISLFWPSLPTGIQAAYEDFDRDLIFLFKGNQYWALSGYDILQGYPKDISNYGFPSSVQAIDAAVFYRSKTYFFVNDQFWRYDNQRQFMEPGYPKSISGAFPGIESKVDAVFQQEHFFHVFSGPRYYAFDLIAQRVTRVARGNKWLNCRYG

[13] = target: Beta-1 adrenergic receptor (Homo sapiens) (UniProt P08588); conditions: Compound concentration 10.0 uM
[14] = target: Alpha-2C adrenergic receptor (Homo sapiens, UniProt P18825); assay: GPCRScan assay: inhibition of Alpha2C; parameters: radioligand conc. used [nm] 0.5 – 1.0, parental cells stable MDCK
Chain of Alpha-2C adrenergic receptor (P18825 whole entry): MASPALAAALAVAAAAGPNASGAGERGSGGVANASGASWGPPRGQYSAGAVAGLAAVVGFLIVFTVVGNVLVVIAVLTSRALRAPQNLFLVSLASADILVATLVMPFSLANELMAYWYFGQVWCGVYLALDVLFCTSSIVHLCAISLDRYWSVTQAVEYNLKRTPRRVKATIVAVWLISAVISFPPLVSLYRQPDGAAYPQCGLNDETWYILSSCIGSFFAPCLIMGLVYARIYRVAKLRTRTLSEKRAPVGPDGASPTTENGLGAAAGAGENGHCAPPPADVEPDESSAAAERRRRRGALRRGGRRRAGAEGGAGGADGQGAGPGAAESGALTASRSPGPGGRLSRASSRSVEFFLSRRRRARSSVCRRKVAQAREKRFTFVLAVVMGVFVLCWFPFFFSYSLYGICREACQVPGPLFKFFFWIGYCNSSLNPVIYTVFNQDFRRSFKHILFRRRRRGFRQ

[15] = target: Dipeptidyl peptidase 4 (Homo sapiens) (UniProt P27487); assay: Dipeptidyl peptidase IV (h) (DPP-IV) Eurofins-Cerep enzyme and uptake assay; conditions: Compound concentration 10.0 uM
Caspase-3 (Homo sapiens) = Caspase-3 (Homo sapiens) (UniProt P42574); assay: Caspase-3 (h) Eurofins-Cerep enzyme and uptake assay; conditions: Compound concentration 10.0 uM
[16] = target: Cathepsin D (Homo sapiens) (UniProt P07339); assay: Cathepsin D (h) Eurofins-Cerep enzyme and uptake assay; conditions: Compound concentration 10.0 uM
[17] = target: Cathepsin S (Homo sapiens) (UniProt P25774); assay: Cathepsin S (h) Eurofins-Cerep enzyme and uptake assay; conditions: Compound concentration 10.0 uM
Trypsin (Homo sapiens) = Trypsin (Homo sapiens) (UniProt P07477+P07478+P35030); assay: Trypsin (h) Eurofins-Cerep enzyme and uptake assay; format: protein assay; conditions: Compound concentration 10.0 uM
Caspase-7 (Homo sapiens) = Caspase-7 (Homo sapiens) (UniProt P55210); assay: Caspase-7 (h) Eurofins-Cerep enzyme and uptake assay; conditions: Compound concentration 10.0 uM
[18] = target: Beta-secretase 1 (Homo sapiens) (UniProt P56817); assay: BACE-1 (h) (β-secretase) Eurofins-Cerep enzyme and uptake assay; conditions: Compound concentration 10.0 uM
Chain of Beta-secretase 1 (Homo sapiens) (P56817 whole entry): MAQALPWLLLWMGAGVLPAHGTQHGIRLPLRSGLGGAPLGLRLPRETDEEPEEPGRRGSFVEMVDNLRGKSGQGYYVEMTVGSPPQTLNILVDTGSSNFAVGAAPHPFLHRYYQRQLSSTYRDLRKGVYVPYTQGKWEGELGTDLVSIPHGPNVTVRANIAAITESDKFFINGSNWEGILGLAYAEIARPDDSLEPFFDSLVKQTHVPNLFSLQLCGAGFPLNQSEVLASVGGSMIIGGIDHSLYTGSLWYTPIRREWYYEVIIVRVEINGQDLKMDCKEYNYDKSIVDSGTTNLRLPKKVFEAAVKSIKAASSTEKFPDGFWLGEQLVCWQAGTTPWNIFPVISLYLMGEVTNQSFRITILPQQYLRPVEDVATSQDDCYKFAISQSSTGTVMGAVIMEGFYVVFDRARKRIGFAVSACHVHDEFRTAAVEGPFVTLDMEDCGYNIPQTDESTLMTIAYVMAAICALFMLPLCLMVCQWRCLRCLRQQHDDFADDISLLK

Caspase-8 (Homo sapiens) = Caspase-8 (Homo sapiens) (UniProt Q14790); assay: Caspase-8 (h) Eurofins-Cerep enzyme and uptake assay; conditions: Compound concentration 10.0 uM
[19] = target: Insulin receptor-related protein (Homo sapiens) (UniProt P14616); conditions: Compound concentration 1000.0 nM
Chain of Insulin receptor-related protein (Homo sapiens) (P14616 27-742 limits assumed): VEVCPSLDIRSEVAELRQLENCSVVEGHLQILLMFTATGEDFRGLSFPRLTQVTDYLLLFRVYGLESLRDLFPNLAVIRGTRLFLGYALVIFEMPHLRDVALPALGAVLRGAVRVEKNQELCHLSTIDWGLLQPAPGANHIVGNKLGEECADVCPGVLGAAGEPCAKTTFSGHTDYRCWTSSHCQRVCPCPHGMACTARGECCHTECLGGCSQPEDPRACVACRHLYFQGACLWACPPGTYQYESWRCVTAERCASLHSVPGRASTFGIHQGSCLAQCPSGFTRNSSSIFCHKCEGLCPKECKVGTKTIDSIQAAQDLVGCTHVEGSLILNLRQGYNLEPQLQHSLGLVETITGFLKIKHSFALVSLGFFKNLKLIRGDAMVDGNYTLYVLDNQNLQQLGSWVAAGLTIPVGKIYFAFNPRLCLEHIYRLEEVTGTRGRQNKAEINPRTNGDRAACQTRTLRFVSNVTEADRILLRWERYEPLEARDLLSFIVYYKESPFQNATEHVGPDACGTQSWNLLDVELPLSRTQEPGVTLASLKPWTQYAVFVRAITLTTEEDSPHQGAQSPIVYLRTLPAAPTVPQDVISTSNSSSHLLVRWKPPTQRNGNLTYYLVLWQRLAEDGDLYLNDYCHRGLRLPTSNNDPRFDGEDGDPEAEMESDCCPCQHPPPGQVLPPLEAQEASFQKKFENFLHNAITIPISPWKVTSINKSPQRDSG
Chain of Insulin receptor-related protein (Homo sapiens) (P14616 747-1297 limits assumed): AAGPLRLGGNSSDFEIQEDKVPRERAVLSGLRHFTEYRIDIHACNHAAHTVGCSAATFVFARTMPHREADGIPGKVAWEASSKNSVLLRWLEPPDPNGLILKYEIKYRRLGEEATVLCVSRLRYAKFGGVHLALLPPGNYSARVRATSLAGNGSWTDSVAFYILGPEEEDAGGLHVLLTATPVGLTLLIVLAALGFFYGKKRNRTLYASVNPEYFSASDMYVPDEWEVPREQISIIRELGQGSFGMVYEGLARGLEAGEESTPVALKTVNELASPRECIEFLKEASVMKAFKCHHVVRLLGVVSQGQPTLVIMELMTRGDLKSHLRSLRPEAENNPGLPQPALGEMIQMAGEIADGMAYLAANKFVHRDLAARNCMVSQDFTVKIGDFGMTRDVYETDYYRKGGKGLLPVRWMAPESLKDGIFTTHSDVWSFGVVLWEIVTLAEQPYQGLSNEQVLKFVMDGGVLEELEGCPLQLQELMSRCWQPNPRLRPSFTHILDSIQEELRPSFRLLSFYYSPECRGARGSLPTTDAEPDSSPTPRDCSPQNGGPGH

[20] = target: Disintegrin and metalloproteinase domain-containing protein 17 (Homo sapiens) (UniProt P78536); assay: TACE (h) Eurofins-Cerep enzyme and uptake assay; conditions: Compound concentration 10.0 uM
[21] = target: Caspase-10 (Homo sapiens) (UniProt Q92851); assay: Caspase-10 (h) Eurofins-Cerep enzyme and uptake assay; conditions: Compound concentration 10.0 uM
[22] = target: Pro-cathepsin H (Homo sapiens) (UniProt P09668); assay: Cathepsin H (h) Eurofins-Cerep enzyme and uptake assay; conditions: Compound concentration 10.0 uM
[23] = target: Muscarinic acetylcholine receptor M5 (Homo sapiens) (UniProt P08912); conditions: Compound concentration 10.0 uM
[24] = target: Procathepsin L (Homo sapiens) (UniProt P07711); assay: Cathepsin L (h) Eurofins-Cerep enzyme and uptake assay; conditions: Compound concentration 10.0 uM
[25] = target: Cathepsin G (Homo sapiens) (UniProt P08311); assay: Cathepsin G (h) Eurofins-Cerep enzyme and uptake assay; conditions: Compound concentration 10.0 uM
[26] = target: Prothrombin (Homo sapiens) (UniProt P00734); assay: Thrombin(h) Eurofins-Cerep enzyme and uptake assay; conditions: Compound concentration 10.0 uM
[27] = target: Matrilysin (Homo sapiens) (UniProt P09237); assay: MMP-7 (h) Eurofins-Cerep enzyme and uptake assay; conditions: Compound concentration 10.0 uM
[28] = target: Proteinase-activated receptor 1 (Homo sapiens) (UniProt P25116); assay: PAR1 (h) Eurofins-Cerep Cellular and Nuclear Receptor Functional Assays; conditions: Compound concentration 10.0 uM
Chain of Proteinase-activated receptor 1 (Homo sapiens) (P25116 whole entry): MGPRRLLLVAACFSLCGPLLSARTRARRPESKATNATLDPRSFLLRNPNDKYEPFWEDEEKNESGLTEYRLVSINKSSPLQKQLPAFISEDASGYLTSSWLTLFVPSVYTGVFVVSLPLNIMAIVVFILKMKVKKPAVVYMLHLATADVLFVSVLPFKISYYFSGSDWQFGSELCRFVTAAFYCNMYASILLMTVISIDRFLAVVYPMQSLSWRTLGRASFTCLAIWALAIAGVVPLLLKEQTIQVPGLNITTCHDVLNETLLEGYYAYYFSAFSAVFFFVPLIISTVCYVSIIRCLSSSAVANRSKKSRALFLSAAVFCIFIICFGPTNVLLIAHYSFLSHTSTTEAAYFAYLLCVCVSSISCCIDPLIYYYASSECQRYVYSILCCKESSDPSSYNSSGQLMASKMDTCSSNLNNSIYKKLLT

[29] = target: Angiotensin-converting enzyme (Homo sapiens) (UniProt P12821); assay: ACE (h) Eurofins-Cerep enzyme and uptake assay; conditions: Compound concentration 10.0 uM
[30] = target: Protease (Human immunodeficiency virus 1) (UniProt Q9YQ12); assay: HIV-1 protease Eurofins-Cerep enzyme and uptake assay; conditions: Compound concentration 10.0 uM
[31] = target: Kappa-type opioid receptor (Homo sapiens) (UniProt P41145); conditions: Compound concentration 10.0 uM
[32] = target: Alpha-2B adrenergic receptor (Homo sapiens, UniProt P18089); assay: GPCRScan assay: inhibition of Alpha2B; parameters: radioligand conc. used [nm] 1.5 – 2.0, parental cells HEKT
[33] = target: Sodium-dependent dopamine transporter (Homo sapiens) (UniProt Q01959); conditions: Compound concentration 10.0 uM
[34] = target: Stromelysin-1 (Homo sapiens) (UniProt P08254); assay: MMP-3 (h) Eurofins-Cerep enzyme and uptake assay; conditions: Compound concentration 10.0 uM
Chymase (Homo sapiens) = Chymase (Homo sapiens) (UniProt P23946); assay: Chymase (h) Eurofins-Cerep enzyme and uptake assay; conditions: Compound concentration 10.0 uM
[35] = target: 5-hydroxytryptamine receptor 7 (Homo sapiens) (UniProt P34969); conditions: Compound concentration 10.0 uM
[36] = target: 5-hydroxytryptamine receptor 6 (Homo sapiens) (UniProt P50406); conditions: Compound concentration 10.0 uM
Chain of 5-hydroxytryptamine receptor 6 (Homo sapiens) (P50406 whole entry): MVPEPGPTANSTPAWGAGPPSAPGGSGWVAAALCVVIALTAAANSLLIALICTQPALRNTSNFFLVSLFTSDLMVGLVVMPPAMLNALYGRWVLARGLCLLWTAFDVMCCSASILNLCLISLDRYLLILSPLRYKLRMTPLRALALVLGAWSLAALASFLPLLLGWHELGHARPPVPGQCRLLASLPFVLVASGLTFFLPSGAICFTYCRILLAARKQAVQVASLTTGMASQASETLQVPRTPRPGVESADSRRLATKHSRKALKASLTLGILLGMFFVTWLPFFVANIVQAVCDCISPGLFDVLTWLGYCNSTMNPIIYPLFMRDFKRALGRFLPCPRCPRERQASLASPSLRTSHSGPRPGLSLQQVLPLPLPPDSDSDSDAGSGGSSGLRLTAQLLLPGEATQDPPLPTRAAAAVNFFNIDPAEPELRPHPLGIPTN

[37] = target: 5-hydroxytryptamine receptor 3A (Homo sapiens) (UniProt P46098); conditions: Compound concentration 10.0 uM
[38] = target: GABA-A receptor; anion channel (Rattus norvegicus) (UniProt O09028+P15431+P18506+P18508+P19969+P20236+P23574+P23576+P28471+P28473+P30191+P62813+P63079+P63138+Q91ZM7+Q9ES14); conditions: Compound concentration 10.0 uM
[39] = target: 5-hydroxytryptamine receptor 2C (Homo sapiens) (UniProt P28335); conditions: Compound concentration 10.0 uM
[40] = target: Alpha-1B adrenergic receptor (Homo sapiens) (UniProt P35368); conditions: Compound concentration 10.0 uM
Chain of Alpha-1B adrenergic receptor (Homo sapiens) (P35368 whole entry): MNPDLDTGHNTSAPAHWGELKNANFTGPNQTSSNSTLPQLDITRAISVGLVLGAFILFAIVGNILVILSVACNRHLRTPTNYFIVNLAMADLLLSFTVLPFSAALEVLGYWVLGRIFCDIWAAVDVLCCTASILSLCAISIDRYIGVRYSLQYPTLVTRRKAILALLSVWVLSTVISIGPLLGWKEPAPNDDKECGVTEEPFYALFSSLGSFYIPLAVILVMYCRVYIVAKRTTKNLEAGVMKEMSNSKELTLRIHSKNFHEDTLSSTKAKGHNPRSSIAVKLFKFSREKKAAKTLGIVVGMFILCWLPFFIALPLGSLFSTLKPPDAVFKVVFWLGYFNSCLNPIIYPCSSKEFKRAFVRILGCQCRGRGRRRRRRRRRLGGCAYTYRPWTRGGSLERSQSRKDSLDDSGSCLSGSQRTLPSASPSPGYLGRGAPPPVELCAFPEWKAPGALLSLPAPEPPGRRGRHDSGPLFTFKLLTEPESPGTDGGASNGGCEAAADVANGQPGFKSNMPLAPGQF

COc1ccc2c(O[C@@H]3C[C@H]4C(=O)N[C@]5(C(=O)O)CC5/C=C\CCCCC[C@H](NC(=O)OC5CCCC5)C(=O)N4C3)cc(-c3csc(NC(=O)C(C)C)n3)nc2c1C (stereo partly specified) [BI 1230]
% Inhibition of Control Values (Caspase-1 (Homo sapiens)): -23.1%
% Inhibition of Control Values [1]: -54.7%
% Inhibition of Control Values [2]: 12.3%
% Inhibition of Control Values [3]: 16.1%
inhibition [4]: -6.16%
% Inhibition of Control Values [5]: 73.8%
% Inhibition of Control Values [6]: 23.1%
residual activity [7]: 100%
% Inhibition of Control Values [8]: -1.7%
% Inhibition of Control Values (Tryptase (Homo sapiens)): 6.9%
% Inhibition of Control Values [9]: 54.8%
inhibition [10]: 4.88%
% Inhibition of Control Values [11]: 281%
% Inhibition of Control Values [12]: 125%
inhibition [13]: 2.05%
Ki ([14]; read-out: Ki): 3.29 µM
Ki ([14]; read-out: pKi (converted)): 3.24 µM
% Inhibition of Control Values [15]: 4%
% Inhibition of Control Values (Caspase-3 (Homo sapiens)): 23.8%
% Inhibition of Control Values [16]: -2.2%
% Inhibition of Control Values [17]: 27%
% Inhibition of Control Values (Trypsin (Homo sapiens)): 29.8%
% Inhibition of Control Values (Caspase-7 (Homo sapiens)): 40.6%
% Inhibition of Control Values [18]: 90.6%
% Inhibition of Control Values (Caspase-8 (Homo sapiens)): -6.2%
residual activity [19]: 95%
% Inhibition of Control Values [20]: 63.7%
% Inhibition of Control Values [21]: 38.2%
% Inhibition of Control Values [22]: -8.1%
inhibition [23]: 3.15%
% Inhibition of Control Values [24]: 13.6%
% Inhibition of Control Values [25]: 63%
% Inhibition of Control Values [26]: 3.5%
% Inhibition of Control Values [27]: 23.4%
% Inhibition of Control Agonist Response [28]: 59.6%
% of Control Agonist Response [28]: -0.9%
% Inhibition of Control Values [29]: 2.6%
% Inhibition of Control Values [30]: 48.2%
inhibition [31]: 18.1%
Ki [32]: 4.49 µM
inhibition [33]: 17.4%
% Inhibition of Control Values [34]: 28%
% Inhibition of Control Values (Chymase (Homo sapiens)): 21.2%

O=C(N[C@H]1CCCCC/C=C\C2C[C@@]2(C(=O)O)NC(=O)[C@@H]2C[C@@H](Oc3ccncc3)CN2C1=O)OC1CCCC1 (stereo partly specified) [BI 1675]
inhibition [35]: -3.24%
inhibition [36]: -7.71%
residual activity [7]: 86%
residual activity [19]: 100%
inhibition [37]: -8.48%
inhibition [38]: -5.88%
inhibition [39]: 7.99%
inhibition [40]: -7.2%
